This is an account of results in PubChem BioAssay AID1996.

In brackets after ≈: the same amount, converted by molar mass.

For the data set the following is noted: buffer; pH 7.4; 200.0 µM.
A word on the solubility (kinetic): it is solubility judged after dilution from a stock solution rather than from solid. `C=CCN1C(=O)c2ccccc2NC1c1cc(Br)cs1` (centres undefined) returned a kinetic solubility of 41.1 µg/mL (≈ 118 µM).

Regarding `O=C(Nc1ccc2c(c1)OCO2)c1ccc(CO)cc1`, the kinetic solubility is greater than 40.7 µg/mL.

Consider `O=C(O)c1[nH]c2ccccc2c1C=NCc1ccccc1Cl`, for which the solubility (kinetic) turned out to be 46.3 µg/mL (≈ 148 µM).

`Cc1nn(CCCC(=O)Nc2cccnc2Cl)c(C)c1[N+](=O)[O-]` came in with a solubility (kinetic) greater than 50.7 µg/mL.

Consider `COC(=O)c1ccccc1NC(=O)c1cc(-c2ccco2)on1`, for which the solubility (kinetic) was found to be 0.6 µg/mL (≈ 1.92 µM).

For `COc1ccc2[nH]c(C(=O)N3CCN(Cc4ccccc4)CC3)cc2c1OC`, the solubility (kinetic) is 51.8 µg/mL (≈ 137 µM).

`NC(=O)COC(=O)c1cccc(S(=O)(=O)N2CCCCC2)c1` yielded a kinetic solubility greater than 49 µg/mL.

For the compound `CC1CCCCC12NC(=O)N(CC(=O)Nc1nccs1)C2=O` (centres undefined), the solubility (kinetic) is greater than 48.4 µg/mL.

In turn, `CCc1sc(C(=O)NC(C)C2CCCO2)cc1Br` (centres undefined) showed a kinetic solubility of 49.5 µg/mL (≈ 149 µM).

The compound `CC(=O)Nc1c2c(nn1-c1ccc(C)cc1)CS(=O)(=O)C2` had a solubility (kinetic) greater than 45.8 µg/mL.

`C=CCN1C(=O)C(C)(C)N(C(=O)c2cccc([N+](=O)[O-])c2)c2ccccc21` gave a solubility (kinetic) of 23.5 µg/mL (≈ 64.3 µM).

For the compound `Cc1cccc(C)c1OCC(=O)Nc1ccccc1C(F)(F)F`, the solubility (kinetic) turned out to be 1.6 µg/mL (≈ 4.95 µM).

As for `CCCCN(C)Cc1c(C)[nH]c2ccccc2c1=O`, the kinetic solubility was greater than 38.8 µg/mL.

`Cc1ccc2c(c1)/C(=C/c1ccccc1)C(=O)N2` displayed a kinetic solubility of 2.3 µg/mL (≈ 9.78 µM).

With `COc1ccc(/C=C/C(=O)O)cc1S(=O)(=O)N1CCC(C)CC1`, the solubility (kinetic) is greater than 50.9 µg/mL.

The compound `Cc1ccc(C2NC(=NCc3ccccc3)Nc3nc(C)cc(=O)n32)cc1` (centres undefined) came in with a solubility (kinetic) of 13.1 µg/mL (≈ 36.4 µM).

With `O=C(OCC(=O)c1ccc(Cl)cc1Cl)c1ccccn1`, the kinetic solubility was greater than 46.5 µg/mL.

The compound `CCS(=O)(=O)N1CCC(C(=O)NCc2ccc(OC)cc2)CC1` had a kinetic solubility greater than 51.1 µg/mL.

`COc1cccc(NC(=O)CN(C)C(=O)c2c(C)noc2C)c1` returned a kinetic solubility greater than 47.6 µg/mL.

The compound `CC(C)(C)NC(=O)NC(=O)CN1CCCc2ccccc21` showed a solubility (kinetic) of 11.9 µg/mL (≈ 41.1 µM).

The compound `COC(=O)C1=C(C)N(C)C(=O)NC1c1c(OC)ccc2ccccc12` (centres undefined) yielded a solubility (kinetic) of 5.4 µg/mL (≈ 15.9 µM).

Turning to `CCOc1ccc(S(=O)(=O)/N=C(/Nc2ccc(C(C)=O)cc2)c2ccccc2)cc1`, the solubility (kinetic) is 18.1 µg/mL (≈ 42.8 µM).

Regarding `Cc1cc(-c2ccc(Cl)cc2Cl)c(C#N)c(=O)[nH]1`, the kinetic solubility worked out at 3.4 µg/mL (≈ 12.2 µM).

Consider `Cc1cscc1NC(=O)/C=C/C(=O)O`, for which the solubility (kinetic) was determined as 31.5 µg/mL (≈ 149 µM).

The compound `O=C(CSc1ccc(-c2ccncc2)nn1)N1CCCC1` displayed a solubility (kinetic) greater than 45.1 µg/mL.

Compound `COP(=O)(OC)C(Nc1ccccc1)c1ccccc1` (centres undefined) registered a solubility (kinetic) greater than 43.7 µg/mL.

Compound `CCOC(=O)Cc1c(C)nc(Cc2ccc(OC(C)C)cc2)[nH]c1=O` came in with a kinetic solubility greater than 51.7 µg/mL.

Compound `O=C(COC(=O)c1cc(S(=O)(=O)N2CCOCC2)ccc1Cl)NCc1ccccc1` displayed a solubility (kinetic) greater than 67.9 µg/mL.

Consider `COc1ccc(-c2nc3n(c2C)Cc2ccccc2-3)cc1`, for which the solubility (kinetic) was found to be 16.3 µg/mL (≈ 59 µM).

`CCCNC(=S)N1CCC(C(=O)c2ccc(F)cc2)CC1` came in with a kinetic solubility greater than 46.3 µg/mL.

Consider `CCC(C)(CC(=O)Nc1nccs1)c1ccccc1` (centres undefined), for which the solubility (kinetic) was greater than 41.2 µg/mL.

`O=S(=O)(Nc1ccc2c(c1)OCCO2)c1ccc(F)c(F)c1` yielded a solubility (kinetic) greater than 49.1 µg/mL.

Regarding `C=CCc1cc(Cl)ccc1OCCn1ccnc1.O=C(O)C(=O)O`, the solubility (kinetic) was determined as 39.5 µg/mL.

Compound `COc1ccccc1NC(=O)c1ccc(NC(=O)CN2CCCCC2)cc1.O=C(O)C(=O)O` displayed a kinetic solubility greater than 68.6 µg/mL.

For the compound `Cn1ccnc1SCC(=O)Nc1ccc2c(c1)OCO2`, the kinetic solubility was greater than 43.7 µg/mL.

The compound `Cc1cn(Cc2ccccc2Cn2cc(C)c(=O)[nH]c2=O)c(=O)[nH]c1=O` had a kinetic solubility of 52.3 µg/mL (≈ 148 µM).

`COc1ccc(CC(=O)Nc2cccc3ccccc23)cc1OC` came in with a kinetic solubility of 7.1 µg/mL (≈ 22.1 µM).

The compound `O=C(COC(=O)c1ccc(F)c(S(=O)(=O)N2CCOCC2)c1)NCc1ccc(Cl)cc1` yielded a solubility (kinetic) of 7.1 µg/mL (≈ 15.1 µM).

`CC(C)c1ccc(NC(=O)C2C3C=CC(CC3)C2C(=O)O)cc1` (centres undefined) yielded a solubility (kinetic) of 3.2 µg/mL (≈ 10.2 µM).

In turn, `Cc1noc(/C=C/c2cccnc2)c1[N+](=O)[O-]` gave a kinetic solubility of 33.7 µg/mL (≈ 146 µM).

`CCN1CC2([N+](=O)[O-])CC=C(Cl)C([N+](=O)[O-])(C1)C2` (centres undefined) had a kinetic solubility of 28.4 µg/mL (≈ 103 µM).

In turn, `O=C(CSc1nnc(-c2ccccn2)o1)Nc1ccc(F)cc1` returned a solubility (kinetic) greater than 49.6 µg/mL.

As for `CC(C)N1C(=O)C(=O)N(CC(=O)N2CCc3ccccc32)C1=O`, the solubility (kinetic) is greater than 47.3 µg/mL.

`CN(CC(=O)Nc1ccc(F)c(F)c1F)C(=O)c1ccc(N2CCCC2=O)cc1` registered a kinetic solubility of 53.4 µg/mL (≈ 132 µM).

In turn, `O=C(O)c1nn2cc(CCO)cnc2c1Cl` showed a solubility (kinetic) greater than 36.2 µg/mL.

The compound `CC(C)c1ccc(NC(=O)CN2CCN(c3ccccn3)CC2)cc1` had a solubility (kinetic) of 1 µg/mL (≈ 2.95 µM).

Turning to `O=C(Nc1ccccc1)OCc1cnc(Cl)s1`, the solubility (kinetic) came out at 36.7 µg/mL (≈ 137 µM). Against the preceding compound, the solubility kinetic is about 37-fold higher.

As for `COc1ccc(-c2csc(C)n2)cc1Br`, the kinetic solubility worked out at 14.8 µg/mL (≈ 52.1 µM). Compared with the last compound, the solubility kinetic is about 2.5-fold lower.

For the compound `COc1ccc2[nH]c(C(=O)NCc3ccc4c(c3)OCO4)cc2c1`, the kinetic solubility was determined as 1.1 µg/mL (≈ 3.39 µM).

As to `Cc1cccc(S(=O)(=O)Nc2ccncc2)c1`, the kinetic solubility worked out at 28.1 µg/mL (≈ 113 µM).

Compound `CCOC(=O)c1cc2c(ccn2C)n1Cc1ccc(Cl)cc1` showed a solubility (kinetic) of 1.3 µg/mL (≈ 4.1 µM).

Compound `S=C1SCN(CC2CC2)CN1CC1CC1` displayed a kinetic solubility greater than 36.4 µg/mL.

`Cc1nccn1CC(=O)N/N=C/c1cc(Br)cs1` gave a solubility (kinetic) greater than 49.1 µg/mL.

Consider `CNC(=O)COC(=O)CCC(=O)c1ccc(Cl)cc1`, for which the solubility (kinetic) stood at 36.2 µg/mL (≈ 128 µM).

In turn, `FC(F)Sc1nc2ccccc2[nH]1` yielded a kinetic solubility greater than 30 µg/mL.

`CN(C)S(=O)(=O)c1ccc(Cl)c(C(=O)NC2=NCCS2)c1` showed a solubility (kinetic) greater than 52.2 µg/mL.

For `O=C(c1cccc(Cl)c1)N1CCN(c2ncccn2)CC1`, the kinetic solubility is greater than 45.4 µg/mL.

`CCN(CC)S(=O)(=O)c1ccc(OC)c(NC(=O)CSCc2c(C)noc2C)c1` had a kinetic solubility greater than 66.2 µg/mL.

Take `CCOC(=O)c1sc2ncc([N+](=O)[O-])cc2c1N`: the solubility (kinetic) turned out to be 3.8 µg/mL (≈ 14.2 µM).

Take `O=C(NCc1ccccn1)Nc1cccc([N+](=O)[O-])c1`: the kinetic solubility is greater than 40.8 µg/mL.

With `COc1ccc2nccnc2c1[N+](=O)[O-]`, the kinetic solubility is greater than 30.8 µg/mL.

Take `NC1=C([N+](=O)[O-])C(c2ccc3c(c2)OCO3)C2=C(CCCC2=O)O1` (centres undefined): the kinetic solubility was 48.4 µg/mL (≈ 147 µM).

Turning to `Cc1nnc(SC(C)C(=O)NC2CCCCC2)s1` (centres undefined), the solubility (kinetic) is greater than 42.8 µg/mL.

For `FC(F)(F)c1ccnc(NCc2ccco2)n1`, the solubility (kinetic) amounted to 9.2 µg/mL (≈ 37.8 µM).

`Cc1cc(N2CC(C)OC(C)C2)n2cc(-c3ccccc3)nc2n1` (centres undefined): the kinetic solubility worked out at 15.4 µg/mL (≈ 47.8 µM).

`CC1CN(C(=S)NC(=O)c2ccc(Cl)cc2)CC(C)O1` (centres undefined) yielded a solubility (kinetic) greater than 46.9 µg/mL.

Turning to `NC(=O)Cn1cnc2nc3n(c2c1=O)CCC3`, the kinetic solubility was greater than 35 µg/mL.

With `Cc1ccccc1OC(C)C(=O)Nc1cccnc1` (centres undefined), the solubility (kinetic) was 36.6 µg/mL (≈ 143 µM).

Turning to `O=C(Nc1cccc(S(=O)(=O)N2CCOCC2)c1)C1CC1`, the solubility (kinetic) is greater than 46.6 µg/mL.

Compound `Br.CN1CCN(C(=O)Cc2ccccc2)CC1` had a solubility (kinetic) greater than 44.9 µg/mL.

With `Cc1ccc(CSCC(=O)NCc2ccco2)cc1`, the solubility (kinetic) was 36.8 µg/mL (≈ 134 µM).

`COc1ccc(NC(=O)c2ccco2)cn1` gave a kinetic solubility greater than 32.7 µg/mL.

`Cn1c(N)c(C(=O)COC(=O)c2ccccc2C(F)(F)F)c(=O)n(C)c1=O` had a kinetic solubility of 6.3 µg/mL (≈ 16.4 µM).

`CCOc1cccc(CNc2ccc(O)cc2)c1OCc1ccc(Cl)cc1` yielded a kinetic solubility greater than 57.6 µg/mL.
